Assay results reported in ChEMBL document CHEMBL5214892, “Antitumor potential of the protein phosphatase inhibitor, cantharidin, and selected derivatives” (Bioorg Med Chem, 2021).
In brackets after ≈: the same amount, converted by molar mass.

Legend:
KB 3-1 = assay: Anticancer activity against human KB 3-1 cells assessed as cell growth inhibition measured after 72 hrs by MTT assay; type: functional, cell-based; conditions: KB 3-1, 72 h
Homo sapiens = species on record: Homo sapiens; assay: Anticancer activity against human Liver cancer cell assessed as cell growth inhibition; type: functional
[1] = Inhibition of bovine brain PP2A assessed as dephosphorylation of substrate using P32 labelled peptide DLDVPIPGRFDRRVSVAAE as substrate by radiometric analysis; set-up: species or system Bos taurus
[2] = Inhibition of PP1 (unknown origin); set-up: species or system Homo sapiens
[3] = Toxicity in mouse assessed as lethal dose administered intraperitoneally; conditions: in vivo, route ip
HepG2 [4] = assay: Anticancer activity against human HepG2 cells assessed as cell growth inhibition measured after 72 hrs by MTT assay; type: functional, cell-based; conditions: HepG2, 72 h
HL-60 = assay: Anticancer activity against human HL-60 cells assessed as cell growth inhibition measured after 72 hrs by MTT assay; type: functional, cell-based; conditions: HL-60, 72 h
[5] = Anticancer activity against human oral cancer cell assessed as cell growth inhibition; type: functional, cell-based
[6] = Anticancer activity against human leukaemia cell line assessed as cell growth inhibition; type: functional, cell-based
[7] = Inhibition of rabbit liver PP2C assessed as dephosphorylation of substrate using P32 labelled peptide as substrate by radiometric analysis; set-up: species or system Oryctolagus cuniculus
HepG2 [8] = assay: Anticancer activity against human HepG2 cells assessed as cell growth inhibition incubated for 2 days by MTT assay; type: functional, cell-based; conditions: HepG2, 48 h
Hep 3B2 [9] = assay: Anticancer activity against human Hep3B cells assessed as cell growth inhibition incubated for 48 hrs by MTT assay; type: functional, cell-based
[10] = Inhibition of PP (unknown origin); set-up: species or system Homo sapiens
Bel-7402 = assay: Anticancer activity against human Bel-7402 cell assessed as cell growth inhibition measured after 24 to 48 hrs by SRB colorimetry assay; type: functional, cell-based
SMMC-7721 = assay: Anticancer activity against human SMMC-7721 cell assessed as cell growth inhibition measured after 24 to 48 hrs by SRB colorimetry assay; type: functional, cell-based
DU-145 = assay: Anticancer activity against human DU-145 cells assessed as cell growth inhibition measured after 72 hrs by MTT assay; type: functional, cell-based; conditions: DU-145, 72 h
Colon cancer cell line = assay: Anticancer activity against human Colon carcinoma cell assessed as cell growth inhibition; type: functional, cell-based
MCF7 = assay: Anticancer activity against human MCF7 cells assessed as cell growth inhibition measured after 72 hrs by MTT assay; type: functional, cell-based; conditions: MCF7, 72 h
BE(2)-C = assay: Anticancer activity against human BE2C cells assessed as cell growth inhibition measured after 72 hrs by MTT assay; type: functional, cell-based
MIA PaCa-2 = assay: Anticancer activity against human MIA PaCa-2 cells assessed as cell growth inhibition measured after 72 hrs by MTT assay; type: functional, cell-based; conditions: MIA PaCa-2, 72 h
A-431 = assay: Anticancer activity against human A-431 cells assessed as cell growth inhibition measured after 72 hrs by MTT assay; type: functional, cell-based; conditions: A-431, 72 h
HT-29 = assay: Anticancer activity against human HT-29 cells assessed as cell growth inhibition measured after 72 hrs by MTT assay; type: functional, cell-based; conditions: HT-29, 72 h
Hep 3B2 [11] = assay: Anticancer activity against human Hep3B cells assessed as cell growth inhibition incubated for 48 hrs by MTS assay; type: functional, cell-based
[12] = Cytotoxicity against human Bone marrow cell assessed as cell growth inhibition by MTS assay; type: toxicity, cell-based; conditions: bone marrow cells
Lung cancer cell line = assay: Anticancer activity against human Lung cancer cell line assessed as cell growth inhibition; type: functional, cell-based
[13] = Homo sapiens, Liver cancer cell

Work on `C[C@]1(C(=O)O)[C@@H]2CC[C@@H](O2)[C@@]1(C)C(=O)O` yielded an IC50 (KB 3-1) of 79.2 µM, an IC50 (Homo sapiens; [13]) of over 50 µM and an IC50 [1] of 0.05 µM. It also gave an IC50 [2] of 0.56 µM, an LD50 [3] of 1.8 mg/kg and an IC50 (HepG2 [4]) of 218 µM. It also gave an IC50 (HL-60) of 103 µM, an IC50 [5] of over 50 µM and an IC50 [6] of over 50 µM. It also gave an IC50 [7] of over 1000 µM.

With `O=C(O)[C@@H]1[C@H](C(=O)O)[C@H]2CC[C@@H]1O2` [listing 1 of 2 here] the IC50 (Homo sapiens; liver cancer cell) was 15 µM and the IC50 (HepG2 [8]) was 15.4 µM.

`CN1C(=O)[C@@]2(C)[C@@H]3CC[C@@H](O3)[C@@]2(C)C1=O` showed an IC50 (Hep 3B2 [9]) of over 2000 µM.

In the case of `O=C1OC[C@@H]2[C@H]1[C@H]1CC[C@@H]2O1`, the IC50 (KB 3-1) is reported as 112 µM, the IC50 [1] is reported as 99.9 µM and the IC50 [2] is reported as 62.2 µM. It also gave an IC50 (HepG2 [4]) of over 200 µM and an IC50 (HL-60) of over 200 µM.

With `C[C@@]12COC(=O)[C@]1(C)[C@H]1CC[C@@H]2O1` the IC50 (KB 3-1) was over 200 µM, the IC50 [1] was over 200 µM and the IC50 [2] was over 200 µM. It also gave an IC50 (HepG2 [4]) of over 200 µM and an IC50 (HL-60) of over 200 µM.

Compound `C[C@@]12C(=O)OC(=O)[C@@H]1[C@H]1CC[C@@H]2O1` has an IC50 [10] of under 1 µM, an IC50 [1] of 0.12 µM and an IC50 [2] of 0.66 µM. For the same compound, the IC50 [7] was over 1000 µM.

`O=C(O)[C@@H]1[C@H](C(=O)O)[C@H]2CC[C@@H]1O2` [listing 2 of 2 here] showed an IC50 (Homo sapiens; [13]) of 12 µM, an IC50 (Bel-7402) of 12.5 µM and an IC50 (SMMC-7721) of 12.5 µM.

For `O=C(NCc1ccc(-c2ccccc2)cc1)C(CNC(=O)[C@H]1[C@@H](C(=O)O)[C@@H]2CC[C@H]1O2)Cc1ccco1` (stereo not given in full), the IC50 (DU-145) was 0.026 µM, the IC50 (Colon cancer cell line) was 0.015 µM and the IC50 (MCF7) was 0.027 µM. For the same compound, the IC50 (BE(2)-C) was 0.029 µM, the IC50 (MIA PaCa-2) was 0.056 µM and the IC50 (A-431) was 0.045 µM. It also gave an IC50 (HT-29) of 0.015 µM.

With `C[C@@]12C(=O)N(c3ncc([N+](=O)[O-])s3)C(=O)[C@]1(C)[C@H]1CC[C@@H]2O1` the IC50 (Homo sapiens; [13]) was under 1 µM and the IC50 (Hep 3B2 [9]) was 0.4 µM.

For `C[C@@]12C(=O)N(c3nc4ccc(OC(F)(F)F)cc4s3)C(=O)[C@]1(C)[C@H]1CC[C@@H]2O1` [CANTHARIDIMIDE], the IC50 (Homo sapiens; [13]) was 6.5 µM, the IC50 (Hep 3B2 [11]) was 15.8 µM and the IC50 [12] was over 12.5 mg/L.

Work on `C[C@@]12C(=O)OC(=O)[C@]1(C)[C@H]1CC[C@@H]2O1` [CANTHARIDIN] yielded an IC50 (KB 3-1) of 2.7 µM, an IC50 (Homo sapiens; [13]) of 2 µM and an IC50 [1] of 0.04 µM. It also gave an IC50 [2] of 0.47 µM, an LD50 [3] of 1 mg/kg and an IC50 (Colon cancer cell line) of 2 µM. It also gave an IC50 (HepG2 [4]) of 19.1 µM, an IC50 (HL-60) of 2.7 µM and an IC50 [5] of 2 µM. It also gave an IC50 [6] of 2 µM, an IC50 [7] of over 1000 µM and an IC50 (Lung cancer cell line) of 2 µM. For the same compound, the IC50 [12] was 6.5 mg/L (≈ 33.1 µM).

In the case of `O=C1OC(=O)C2C3CCC(O3)C12` (stereo not given) [DEMETHYL-CANTHARIDIN], the IC50 (KB 3-1) is reported as 69.5 µM, the IC50 (Homo sapiens; [13]) is reported as over 15 µM and the IC50 [1] is reported as 0.37 µM. For the same compound, the IC50 [2] was 1.98 µM, the LD50 [3] was 4 mg/kg and the IC50 (Colon cancer cell line) was over 15 µM. It also gave an IC50 (HepG2 [4]) of 213 µM, an IC50 (HL-60) of 15.7 µM and an IC50 [5] of over 15 µM. For the same compound, the IC50 [6] was over 15 µM.

In the case of `O=C(O)[C@@H]1[C@H](C(=O)O)[C@H]2CC[C@@H]1O2` [ENDOTHALL], the IC50 [10] is reported as over 0.9 µM, the IC50 [1] is reported as 0.97 µM and the IC50 [2] is reported as 5 µM. The LD50 [3] was 14 mg/kg and the IC50 [7] was over 1000 µM.
